Experimental findings from patent US8440660B2 (Santen Pharmaceutical Co., Ltd., priority 2006, dated 2013) are described below.

The target of this assay is T1, Glucocorticoid Receptor (GR) (Homo sapiens, UniProt P04150).
T1 construct: purchased Invitrogen P2816
T1 sequence (P04150 1-777): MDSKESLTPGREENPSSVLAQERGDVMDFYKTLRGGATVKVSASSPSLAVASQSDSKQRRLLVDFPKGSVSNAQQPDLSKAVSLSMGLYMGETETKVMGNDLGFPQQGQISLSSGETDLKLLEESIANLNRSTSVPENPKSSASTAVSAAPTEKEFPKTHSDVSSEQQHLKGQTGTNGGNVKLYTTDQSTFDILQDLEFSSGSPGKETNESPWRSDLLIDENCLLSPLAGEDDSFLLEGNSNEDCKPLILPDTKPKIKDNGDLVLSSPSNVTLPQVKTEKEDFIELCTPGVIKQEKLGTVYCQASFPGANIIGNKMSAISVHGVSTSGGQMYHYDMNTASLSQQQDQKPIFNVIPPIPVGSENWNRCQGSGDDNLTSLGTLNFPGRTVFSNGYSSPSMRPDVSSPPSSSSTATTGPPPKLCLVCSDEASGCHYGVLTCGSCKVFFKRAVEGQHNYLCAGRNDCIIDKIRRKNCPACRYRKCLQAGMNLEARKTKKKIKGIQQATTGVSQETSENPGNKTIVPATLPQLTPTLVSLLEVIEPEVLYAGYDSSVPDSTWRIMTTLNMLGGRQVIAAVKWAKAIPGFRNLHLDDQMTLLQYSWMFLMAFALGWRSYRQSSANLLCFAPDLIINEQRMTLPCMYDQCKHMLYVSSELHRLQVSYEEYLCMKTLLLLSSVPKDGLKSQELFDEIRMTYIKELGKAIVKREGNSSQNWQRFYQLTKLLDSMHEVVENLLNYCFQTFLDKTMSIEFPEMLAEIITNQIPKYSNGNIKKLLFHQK
The experiment in a line: GR receptor competitor assay by fluorescence polarization (Invitrogen GR competitor assay kit, cat No. P2816). Conditions: 20 μM test compound solution, 10 μL per well plus 5 μL 4×GS1 and 5 μL 4×GR solution; recombinant human GR; 2 to 4 hours at room temperature; a ratio of 100% or more is indicated by 100%; read-out: GR Binding ratio (%). A digest of the protocol: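 Recombinant human GR with fluorescent ligand Fluormone GS1 in pH 7.4 phosphate buffer with molybdate, EDTA, DTT, stabilizing peptide and 2% DMSO; compound added as 20 μM solution (pre-mix). FP read after 2–4 h at room temperature in the dark. Binding ratio (%) normalized between buffer and dexamethasone controls.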

SMILES strings stand for the structures.

With `COc1cc(OC(=O)c2cscn2)ccc1-c1ccc2c(c1COc1cc(F)ccc1C)C(C)=CC(C)(C)N2` [Compound 1-54, 5-(5-Fluoro-2-methylphenoxymethyl)-6-[2-methoxy-4-(thiazol-4-ylcarbonyloxy)phenyl]-2,2,4-trimethyl-1,2-dihydroquinoline], the inhibition at 10 µM came to 100%.
Under `COc1cccc(C(=O)Oc2ccc(-c3ccc4c(c3COc3cc(F)ccc3C)C(C)=CC(C)(C)N4)c(OC)c2)c1` [Compound 1-7, 5-(5-Fluoro-2-methylphenoxymethyl)-6-[2-methoxy-4-(3-methoxybenzoyloxy)phenyl]-2,2,4-trimethyl-1,2-dihydroquinoline] stands 100%; under `COc1cc(OC(=O)C(C)(C)C)ccc1-c1ccc2c(c1COc1cc(F)ccc1C)C(C)=CC(C)(C)N2` [Compound 1-72, 6-(4-t-Butylcarbonyloxy-2-methoxyphenyl)-5-(5-fluoro-2-methylphenoxymethyl)-2,2,4-trimethyl-1,2-dihydroquinoline], 98%.
Under `COc1cc(OC(=O)c2ccccc2)ccc1-c1ccc2c(c1COc1cc(F)ccc1C)C(C)=CC(C)(C)N2` [Compound 1-1, 6-(4-Benzoyloxy-2-methoxyphenyl)-5-(5-fluoro-2-methylphenoxymethyl)-2,2,4-trimethyl-1,2-dihydroquinoline] stands 94%; under `COc1cc(OC(=O)C2CCN(C(=O)OC(C)(C)C)CC2)ccc1-c1ccc2c(c1COc1cc(F)ccc1C)C(C)=CC(C)(C)N2` [Compound 1-51, 6-[4-(1-t-Butoxycarbonylpiperidin-4-ylcarbonyloxy)-2-methoxyphenyl]-5-(5-fluoro-2-methylphenoxymethyl)-2,2,4-trimethyl-1,2-dihydroquinoline], 91%; under `COc1cc(OC(=O)c2ccoc2)ccc1-c1ccc2c(c1COc1cc(F)ccc1C)C(C)=CC(C)(C)N2` [Compound 1-34, 5-(5-Fluoro-2-methylphenoxymethyl)-6-[4-(furan-3-ylcarbonyloxy)-2-methoxyphenyl]-2,2,4-trimethyl-1,2-dihydroquinoline], 100%.
Under `COc1cc(OC(=O)c2ccc(C(C)=O)cc2)ccc1-c1ccc2c(c1COc1cc(F)ccc1C)C(C)=CC(C)(C)N2` [Compound 1-67, 6-[4-(4-Acetylbenzoyloxy)-2-methoxyphenyl]-5-(5-fluoro-2-methylphenoxymethyl)-2,2,4-trimethyl-1,2-dihydroquinoline] stands 100%; under `CCCS(=O)(=O)Oc1ccc(-c2ccc3c(c2COc2cc([N+](=O)[O-])ccc2C)C(C)=CC(C)(C)N3)c(OC)c1` [Compound 4-25, 6-(2-Methoxy-4-propylsulfonyloxyphenyl)-5-(2-methyl-5-nitrophenoxymethyl)-2,2,4-trimethyl-1,2-dihydroquinoline], 100%; under `COc1cc(OC(=O)NC(C)C)ccc1-c1ccc2c(c1COc1cc(F)ccc1C)C(C)=CC(C)(C)N2` [Compound 6-21, 6-(4-Isopropylaminocarbonyloxy-2-methoxyphenyl)-5-(5-fluoro-2-methylphenoxymethyl)-2,2,4-trimethyl-1,2-dihydroquinoline], 92%.
As for `COc1cc(OC(=O)c2ccc(C)nc2)ccc1-c1ccc2c(c1COc1cc(F)ccc1C)C(C)=CC(C)(C)N2` [Compound 1-69, 5-(5-Fluoro-2-methylphenoxymethyl)-6-[2-methoxy-4-(6-methylpyridin-3-ylcarbonyloxy)phenyl]-2,2,4-trimethyl-1,2-dihydroquinoline], the inhibition at 10 µM came out at 100%.
Under `CCS(=O)(=O)Oc1ccc(-c2ccc3c(c2COc2cc(F)ccc2C)C(C)=CC(C)(C)N3)c(OC)c1` [Compound 4-12, 6-(4-Ethylsulfonyloxy-2-methoxyphenyl)-5-(5-fluoro-2-methylphenoxymethyl)-2,2,4-trimethyl-1,2-dihydroquinoline] stands 92%.
Under `COc1cc(OC(=O)c2ccccn2)ccc1-c1ccc2c(c1COc1cc(F)ccc1C)C(C)=CC(C)(C)N2` [Compound 1-35, 5-(5-Fluoro-2-methylphenoxymethyl)-6-[2-methoxy-4-(pyridin-2-ylcarbonyloxy)phenyl]-2,2,4-trimethyl-1,2-dihydroquinoline] stands 100%; under `COc1cc(OC(=O)c2ccccc2Cl)ccc1-c1ccc2c(c1COc1cc(F)ccc1C)C(C)=CC(C)(C)N2` [Compound 1-11, 6-[4-(2-Chlorobenzoyloxy)-2-methoxyphenyl]-5-(5-fluoro-2-methylphenoxymethyl)-2,2,4-trimethyl-1,2-dihydroquinoline], 100%.
Take `CCC(=O)Oc1ccc(OC)c(-c2ccc3c(c2COc2cc(F)ccc2C)C(C)=CC(C)(C)N3)c1` [Compound 1-27, 5-(5-Fluoro-2-methylphenoxylmethyl)-6-(2-methoxy-5-propionyloxyphenyl)-2,2,4-trimethyl-1,2-dihydroquinoline]: the inhibition at 10 µM is 84%.
Next, `COc1cc(OC(=O)CNC(=O)OC(C)(C)C)ccc1-c1ccc2c(c1COc1cc(F)ccc1C)C(C)=CC(C)(C)N2` [Compound 1-2, 6-(4-t-Butoxycarbonylaminoacetoxy-2-methoxyphenyl)-5-(5-fluoro-2-methylphenoxymethyl)-2,2,4-trimethyl-1,2-dihydroquinoline]: 100%.
Under `COc1cc(OC(=O)c2cnccc2C)ccc1-c1ccc2c(c1COc1cc(F)ccc1C)C(C)=CC(C)(C)N2` [Compound 1-70, 5-(5-Fluoro-2-methylphenoxymethyl)-6-[2-methoxy-4-(4-methylpyridin-3-ylcarbonyloxy)phenyl]-2,2,4-trimethyl-1,2-dihydroquinoline] stands 100%; under `COc1ccc([N+](=O)[O-])cc1OCc1c(-c2ccc(OS(=O)(=O)C(C)C)cc2OC)ccc2c1C(C)=CC(C)(C)N2` [Compound 4-20, 6-(4-Isopropylsulfonyloxy-2-methoxyphenyl)-5-(2-methoxy-5-nitrophenoxymethyl)-2,2,4-trimethyl-1,2-dihydroquinoline], 100%.
Next, `CCCS(=O)(=O)Oc1ccc(-c2ccc3c(c2COc2cc([N+](=O)[O-])ccc2OC)C(C)=CC(C)(C)N3)c(OC)c1` [Compound 4-18, 5-(2-Methoxy-5-nitrophenoxymethyl)-6-(2-methoxy-4-propylsulfonyloxyphenyl)-2,2,4-trimethyl-1,2-dihydroquinoline]: 99%.
Turning to `COc1cc(OC(=O)C2CCCCC2)ccc1-c1ccc2c(c1COc1cc(F)ccc1C)C(C)=CC(C)(C)N2` [Compound 1-12, 6-(4-Cyclohexylcarbonyloxy-2-methoxyphenyl)-5-(5-fluoro-2-methylphenoxymethyl)-2,2,4-trimethyl-1,2-dihydroquinoline], the inhibition at 10 µM was 100%.
As to `CCCC(=O)Oc1ccc(-c2ccc3c(c2COc2cc(F)ccc2C)C(C)=CC(C)(C)N3)c(OC)c1` [Compound 1-14, 6-(4-Butyryloxy-2-methoxyphenyl)-5-(5-fluoro-2-methylphenoxymethyl)-2,2,4-trimethyl-1,2-dihydroquinoline], the inhibition at 10 µM was 100%.
Under `COC(=O)c1ccc(NC(=O)Oc2ccc(-c3ccc4c(c3COc3cc(F)ccc3C)C(C)=CC(C)(C)N4)c(OC)c2)cc1` [Compound 6-14, 5-(5-Fluoro-2-methylphenoxymethyl)-6-[2-methoxy-4-(4-methoxycarbonylphenylaminocarbonyloxy)phenyl]-2,2,4-trimethyl-1,2-dihydroquinoline] stands 88%; under `COc1cc(OC(=O)c2ccc([N+](=O)[O-])cc2)ccc1-c1ccc2c(c1COc1cc(F)ccc1C)C(C)=CC(C)(C)N2` [Compound 1-40, 5-(5-Fluoro-2-methylphenoxymethyl)-6-[2-methoxy-4-(4-nitrobenzoyloxy)phenyl]-2,2,4-trimethyl-1,2-dihydroquinoline], 100%.
